In patent publication US20100029654A1, “CARDIOVASCULAR COMPOSITIONS AND USE OF THE SAME FOR THE TREATMENT OF ALZHEIMER'S DISEASE” (MOUNT SINAI SCHOOL OF MEDICINE, priority 2006, published 2010):
Where a name gives a salt, the structure may show the parent alone. Read-outs that look alike come from different tables or passages of the source.

Assays:
Aβ1-40 = Aβ1-40 content in conditioned medium of primary cortico-hippocampal neuron cultures from Tg2576 mice (ELISA; primary and secondary dose-response screening); assay type: cell-based, mouse; conditions: for activity at 100 µM / EC50: Mus musculus; for activity at 100 µM: 24 h, read-out: Ab1-40 (% of ctl)
In short: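 Primary cortico-hippocampal neurons from embryonic Tg2576 mice were plated at 1.0×10^5 cells per well on poly-D-lysine-coated 96-well plates in Neurobasal with 2% B27, 0.5 mM L-glutamine and 1% penicillin-streptomycin. Cultures received drug in 1% DMSO, and Aβ1-40 in the conditioned medium was measured by BioSource ELISA 24 hours after treatment, relative to vehicle controls.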

[1] = tested on: primary cortico-hippocampal neuron cultures
Experimental: (§3) For in vitro treatments drugs available from “The Spectrum Collection” in stocks of 10 mM in DMSO were applied directly to cultures to the desired concentrations (final 1% DMSO); control primary neuron cultures from Tg2576 embryos were treated with vehicle resulting in a final 1% DMSO.
(§4) Cell viability was assessed using a commercial available LDH assay kit according to the manufacture's instruction (Promega).

[2] = tested on: primary cortico-hippocampal neuron cultures; remark: listed apart in the source
Aβ1-42 [3] = test: Aβ1-42 content in conditioned medium of primary cortico-hippocampal neuron cultures from Tg2576 mice (ELISA; primary and secondary dose-response screening); assay type: cell-based, mouse; conditions: for activity at 100 µM / EC50: Mus musculus; for activity at 100 µM: 24 h, read-out: Ab1-42 (% of ctl)
Aβ1-42 [4] = test: as above; assay type: cell-based, mouse; conditions: for Ab1-42 (% of ctl) / activity at 100 µM: drug 100 μM; for reducing Aβ1-42: <85% of ctl; for activity at 100 µM: Mus musculus, Neuron, 24 h, read-out: Ab1-42 (% of ctl)
In short: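 This screen tested cardiovascular drugs for Aβ-lowering in Tg2576 embryonic cortico-hippocampal neuron cultures plated at 1.0×10^5 cells per well in poly-D-lysine-coated 96-well plates with Neurobasal/B27 medium. Drugs at 100 μM were added directly to the medium in duplicate, with 1% DMSO alone as the control. Conditioned medium was then collected, and its Aβ1-42 level was quantified with BioSource ELISA kits.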

Tg2576 mice [5] = test: blood pressure (systolic, diastolic, MAP) by tail-cuff; assay type: in vivo, mouse
Experimental: FIG. 1 Tg2576 mice are characterized by normal blood pressure under basal conditions. Baseline measurements of systolic, diastolic blood pressure, and mean arteriole blood pressure (MAP) in ˜11 month old female Tg2576 mice. Strain-, age-, gender-matched WT mice were measured using a commercial blood pressure analysis system designed specifically for small rodents (Hatteras Instruments, NC). Following manufacturer's instruction, mice were temporarily immobilized in a restraining chamber and an inflated tail-cuff wrapped around the tail was used to measure the systolic pressure, diastolic pressure, and MAP. Each blood pressure determination was calculated as the mean of 10 individual measurements per animal (n=6-10 group).
FIG. 6A-C show body weight of mice in response to ˜3 weeks of treatment. […] FIG. 6D-F show the assessment of systolic, diastolic, and MAP blood pressure in Tg2576 mice in response to drug doses below or within the range of those prescribed in hypertension. Blood pressure measurements were conducted using a commercial blood pressure analysis system designed specifically for small rodents (Hatteras Instruments, NC). Following manufacturer's instruction, mice were temporarily immobilized in a restraining chamber and an inflated tail-cuff wrapped around the tail was used to measure pressures. Each blood pressure determination was calculated as the mean of 10 individual measurements per animal. In A-F, values represent mean±SEM values, n=3-5 mice per group. 2-tailed t-test: *P<0.05.
Assessment of blood pressure and glucose utilization. Mouse blood pressure was routinely recorded using a commercial blood pressure analysis system designed specifically for small rodents (Hatteras Instruments, NC). […] Briefly, mice were given a single dose of glucose post-prandially (i.p. 2 g/kg body weight). Blood was collected from the tail-vein periodically over a 2-hour period. Blood glycemic content was assessed using the OneTouch LifeScan System, (LifeScan, Milpitas, Calif.) following the manufacturer's instruction.

[6] = tested on: primary cortico-hippocampal neuron cultures; test: MTT in primary screening
Tg2576 mice [7] = test: tolerability: body weight, fluid consumption, glucose tolerance; conditions: Tg2576, short-term dosing
[8] = tested on: primary cortico-hippocampal neuron cultures; test: lactate dehydrogenase (LDH) activity assay in parallel neuron cultures; conditions: for LDH (at 5F-5 M): Table IV
Experimental: as §3, §4

Aβ1-42 [9] = conditions: Tg2576, short-term dosing, subclinical or clinical concentrations
Experimental: Cognitive behavioral function was assessed using the Morris water maze (MWM). After completion of the MWM test, blood pressure measurements were quantified as describe in FIG. 1 legends. Following MWM testing and blood pressure assessment, mice were sacrificed for neuropathological assessment. […] C, (inset), total immunoreactive APP content normalized to β-actin signal. In C-D, bar graphs represent group mean±SEM, n=6-10 mice per group.
(§1) FIG. 7. […] Bar graphs represent group mean±SEM, n=3 mice per group. 2-tailed t-test: *P<0.05.
(§2) Assessment of AD-type amyloid neuropathology in Tg2576 mice. For quantitative assessment of Aβ peptide in the brain, frozen pulverized tissue was homogenized in 5.0 M guanidine buffer, diluted (1:10) in phosphate-buffered saline containing 0.05% (v/v) Tween-20 and 1 mM Pefabloc protease inhibitors (Roche Biochemicals, Indianapolis, Ind.), and centrifuged for 20 min at 4° C. […] Serum Aβ content was analyzed using the same ELISA Kit, following manufacturer instructions.

Aβ1-42 and Aβ1-40 = Aβ1-42 and Aβ1-40 content in peripheral blood (plasma, serum) by ELISA; assay type: in vivo, mouse
Experimental: as §1, §2

[10] = primary screening, drug 100 μM, Tg2576 neuron cultures, table sorted by Aβ1-42
[11] = Primary Screening, drug 100 μM, table sorted by Aβ1-40
[12] = Primary Screening, table sorted by Aβ1-40
[13] = Neuron, Primary Screening, drug 100 μM, table sorted by Aβ1-40
[14] = Neuron, primary screening, drug 100 μM, Tg2576 neuron cultures, table sorted by Aβ1-42
[15] = Neuron, Table IV, dose-response 0.01-100 μM, read-out: EC50 (M): Ab-lowering activity Abeta1-40
[16] = primary screening, Tg2576 neuron cultures, table sorted by Aβ1-42
[17] = Tg2576, 3 weeks, doses within the range used for hypertension
[18] = Tg2576, 3 weeks, doses ~3 fold below the minimal hypertension dose
[19] = Neuron, Table IV, dose-response 0.01-100 μM, read-out: EC50 (M): Ab-lowering activity
[20] = primary screening, table sorted by Aβ1-42

Compound: COc1cccc(OC)c1OCCNCC1COc2ccccc2O1.Cl (stereo not drawn) [2-(2,6-Dimethoxyphenoxyethyl) Aminomethyl-1,4-Benzodioxane Hydrochloride]
- Ab1-40 (% of ctl) (Aβ1-40): 82.6 % of ctl
- reduced Aβ1-40 (Aβ1-40): reduced Aβ1-40
- LDH (% of ctl) [1]: 103.9 % of ctl
- MTT (% of ctl) [2]: 95.5 % of ctl
- Ab1-42 (% of ctl) (Aβ1-42 [3]): 94.7 % of ctl

Compound: CC(=O)[O-].CC(=O)[O-].[Cd+2] [Cadmium Acetate]
- Ab1-40 (% of ctl) (Aβ1-40): 29.5 % of ctl
- reduced Aβ1-40 (Aβ1-40): reduced Aβ1-40
- LDH (% of ctl) [1]: 889.8 % of ctl
- MTT (% of ctl) [2]: 29.1 % of ctl
- Ab1-42 (% of ctl) (Aβ1-42 [3]): 3.8 % of ctl
- reducing Aβ1-42 (Aβ1-42 [3]): useful in reducing Aβ1-42

Compound: Cl.NCCc1ccc(O)c(O)c1 [Dopamine Hydrochloride]
- reduced Aβ1-40 (Aβ1-40): reduced Aβ1-40
- activity at 100 µM (Aβ1-40; Neuron): 85%
- LDH (% of ctl) ([1]; Tg2576, mouse): 559.5 % of ctl
- MTT (% of ctl) ([2]; Tg2576, mouse): 95.7 % of ctl
- reducing Aβ1-42 (Aβ1-42 [3]): useful in reducing Aβ1-42
- activity at 100 µM (Aβ1-42 [3]; Neuron): 78.3%

Compound: CC(Cc1ccc(O)cc1)NCC(O)c1cc(O)cc(O)c1 (stereo not drawn) [Fenoterol Hydrobromide]
- activity at 100 µM (Aβ1-40; [10]): 89.3%
- Ab1-40 (% of ctl) (Aβ1-40; [11]): 89.3 % of ctl
- Ab1-42 (% of ctl) (Aβ1-42 [4]; [12]): 78.8 % of ctl
- reducing Aβ1-42 (Aβ1-42 [4]; primary screening): useful in reducing Aβ1-42
- LDH (% of ctl) ([1]; Tg2576, mouse): 104.3 % of ctl
- MTT (% of ctl) ([2]; Tg2576, mouse): 93.9 % of ctl
- activity at 100 µM (Aβ1-42 [3]; [10]): 78.8%

Compound: CCCCc1nc(Cl)c(CO)n1Cc1ccc(-c2ccccc2-c2nn[nH]n2)cc1 [Losartan]
- activity at 100 µM (Aβ1-40; [13]): 76%
- activity at 100 µM (Aβ1-40; [14]): 76%
- EC50 (Aβ1-40; [15]): 0.000117 M
- reduced Aβ1-40 (Aβ1-40; primary screening, <85% of ctl): reduced Aβ1-40
- activity at 100 µM (Aβ1-42 [4]; [12]): 97.1%
- activity at 100 µM (Aβ1-42 [4]; [16]): 97.1%
- systolic, diastolic, MAP blood pressure (Tg2576 mice [5]; [17]): decreased systolic, diastolic, and MAP blood pressure
- systolic, diastolic, MAP blood pressure (Tg2576 mice [5]; [18]): did not significantly influence either systolic, diastolic or MAP blood pressure
- EC50 (Aβ1-42 [3]; [19]): 0.0001 M
- MTT (% of ctl) [6, 12]: 71.3 % of ctl
- MTT (% of ctl) [6, 20]: 71.3 % of ctl
- fluid intake (Tg2576 mice [7]): did not significantly influence the amount of fluid intake
- LDH (% of ctl) [8, 12]: 110.4 % of ctl
- LDH (at 5F-5 M) [8]: no change
- LDH (% of ctl) [8, 20]: 110.4 % of ctl

Compound: COC(=O)C1=C(C)NC(C)=C(C(=O)OCCN(C)Cc2ccccc2)C1c1cccc([N+](=O)[O-])c1 (stereo not drawn) [Nicardipine Hydrochloride]
- activity at 100 µM (Aβ1-40; [13]): 10.7%
- activity at 100 µM (Aβ1-40; [14]): 10.7%
- EC50 (Aβ1-40; [15]): 3.64e-05 M
- reduced Aβ1-40 (Aβ1-40; primary screening, <85% of ctl): reduced Aβ1-40
- activity at 100 µM (Aβ1-42 [4]; [12]): 27.6%
- activity at 100 µM (Aβ1-42 [4]; [16]): 27.6%
- reducing Aβ1-42 (Aβ1-42 [4]; primary screening): useful in reducing Aβ1-42
- systolic, diastolic, MAP blood pressure (Tg2576 mice [5]; [17]): decreased systolic, diastolic, and MAP blood pressure
- systolic, diastolic, MAP blood pressure (Tg2576 mice [5]; [18]): did not significantly influence either systolic, diastolic or MAP blood pressure
- systolic, diastolic, MAP blood pressure (Tg2576 mice [5]; Tg2576, any dose 3-18 mg/kg/day): No detectable changes
- steady state levels of Aβ1-42 in hippocampal formation or cerebral cortex (Aβ1-42 [9]): significantly reduced steady state levels of Aβ1-42
- plasma Aβ1-42 levels (and Aβ1-40) (Aβ1-42 and Aβ1-40; Tg2576, doses ~3 fold lower than minimal hypertension dose): prevented plasma accumulation of Aβ1-42 levels
- plasma Aβ1-42 (and Aβ1-40) (Aβ1-42 and Aβ1-40; Tg2576, within the dosage range prescribed for hypertension): lowering responses were found
- EC50 (Aβ1-42 [3]; [19]): 0.000119 M
- MTT (% of ctl) [6, 12]: 52.4 % of ctl
- MTT (% of ctl) [6, 20]: 52.4 % of ctl
- fluid intake (Tg2576 mice [7]): did not significantly influence the amount of fluid intake
- LDH (% of ctl) [8, 12]: 104.2 % of ctl
- LDH (at 5F-5 M) [8]: no change
- LDH (% of ctl) [8, 20]: 104.2 % of ctl

Compound: COc1ccc(Cc2nccc3cc(OC)c(OC)cc23)cc1OC [Papaverine Hydrochloride]
- activity at 100 µM (Aβ1-40; [10]): 15.3%
- EC50 (Aβ1-40; Neuron, secondary dose-response screening 0.01-100 μM, 24 hours, read-out: EC50 (molar) Aβ1-40): 1.72e-05 M
- Ab1-40 (% of ctl) (Aβ1-40; [11]): 15.3 % of ctl
- reduced Aβ1-40 (Aβ1-40; primary screening, <85% of ctl): reduced Aβ1-40
- Ab1-42 (% of ctl) (Aβ1-42 [4]; [12]): 30.1 % of ctl
- reducing Aβ1-42 (Aβ1-42 [4]; primary screening): useful in reducing Aβ1-42
- MTT (% of ctl) ([2]; Tg2576, mouse, 100 µM): 92.2 % of ctl
- activity at 100 µM (Aβ1-42 [3]; [10]): 30.1%
- EC50 (Aβ1-42 [3]; Neuron, secondary dose-response screening 0.01-100 μM, 24 hours, read-out: EC50 (molar) Aβ1-42): 1.91e-05 M
- LDH (% of ctl) [8, 12]: 118.4 % of ctl
- LDH at E-5M % of change ([8]; drug at E-5M): −8.9%
- LDH (% of ctl) [8, 20]: 118.4 % of ctl

Compound: Veratrine Sulfate
- Ab1-40 (% of ctl) (Aβ1-40; [11]): 58.5 % of ctl
- reduced Aβ1-40 (Aβ1-40; primary screening, <85% of ctl): reduced Aβ1-40
- Ab1-40 (% of ctl) (Aβ1-40; [10]): 58.5 % of ctl
- Ab1-42 (% of ctl) (Aβ1-42 [4]; [12]): 87.1 % of ctl
- Ab1-42 (% of ctl) (Aβ1-42 [4]; [16]): 87.1 % of ctl
- LDH (% of ctl) [1]: 124.4 % of ctl
- MTT (% of ctl) [2]: 84.4 % of ctl
